Reference: the supplement of paper PMC10307832

Legend:
Assay in all cases: relative viability (nuclei count vs DMSO), 5 days (fraction); higher = more cells survive
[1] = compound: OCc1c[nH]c2ccccc12 [Indole-3-carbinol] + CC(=O)c1c(C)c2cnc(Nc3ccc(N4CCNCC4)cn3)nc2n(C2CCCC2)c1=O [Palbociclib] (partner 0.5 µM)
Method in brief: (§1)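 Cells from lung cancer lines were seeded into 1536-well plates and, one day later, dosed by pin tool. Treatments were either a single drug or a fixed dose of an anchor drug with five library-drug doses (not always all listed) in √10 steps. After 5 days, nuclei were stained in a one-step fixation (final 0.05% Triton X-100, 1% formaldehyde, 1 ug/ml Hoechst) and counted on 4× images, and relative viability is the treated-to-vehicle nuclei ratio, as the median of duplicate plates.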

[2] = compound: OCc1c[nH]c2ccccc12 [Indole-3-carbinol] + CC(C)C[C@H](NC(=O)[C@H](Cc1ccccc1)NC(=O)c1cnccn1)B(O)O [Bortezomib] (partner 0.002 µM)
Method in brief: as §1

[3] = compound: OCc1c[nH]c2ccccc12 [Indole-3-carbinol] + Nc1nc2[nH]cc(CCc3ccc(C(=O)N[C@@H](CCC(=O)O)C(=O)O)cc3)c2c(=O)[nH]1 [Pemetrexed] (partner 0.2 µM)
Method in brief: as §1

[4] = compound: OCc1c[nH]c2ccccc12 [Indole-3-carbinol] + Cc1cc(Nc2cc(N3CCN(C)CC3)nc(Sc3ccc(NC(=O)C4CC4)cc3)n2)n[nH]1 [Tozasertib] (partner 0.1 µM)
Method in brief: as §1

[5] = compound: OCc1c[nH]c2ccccc12 [Indole-3-carbinol] + COc1cccc2cc(-c3nc([C@H]4CC[C@H](C(=O)O)CC4)n4ncnc(N)c34)[nH]c12 [OSI-027] (partner 0.5 µM)
Method in brief: as §1

Cell Line	relative viability ([1]; first compound 0.253 µM)	relative viability ([1]; first compound 0.8 µM)	relative viability ([1]; first compound 2.53 µM)	relative viability ([1]; first compound 8 µM)	relative viability ([2]; first compound 0.253 µM)	relative viability ([2]; first compound 0.8 µM)	relative viability ([2]; first compound 2.53 µM)	relative viability ([2]; first compound 8 µM)	relative viability ([3]; first compound 0.253 µM)	relative viability ([3]; first compound 0.8 µM)	relative viability ([3]; first compound 2.53 µM)	relative viability ([3]; first compound 8 µM)	relative viability ([4]; first compound 0.253 µM)	relative viability ([4]; first compound 0.8 µM)	relative viability ([4]; first compound 2.53 µM)	relative viability ([4]; first compound 8 µM)	relative viability ([5]; first compound 0.253 µM)	relative viability ([5]; first compound 0.8 µM)	relative viability ([5]; first compound 2.53 µM)	relative viability ([5]; first compound 8 µM)
HCC-366	0.419	0.384	0.455	0.356	0.986	0.858	1.05	1.09	0.198	0.202	0.179	0.169	0.103	0.125	0.0939	0.196	0.954	0.777	0.898	0.881
NCI-H1651	0.53	0.521	0.524	0.495	0.917	0.938	0.98	0.874	0.576	0.539	0.686	0.605	0.723	0.922	0.834	0.614	0.626	0.643	0.84	0.648
LC-2-ad	0.533	0.534	0.513	0.455	1.13	1.11	0.994	0.974	0.282	0.276	0.246	0.263	0.404	0.417	0.537	0.468	0.888	0.776	0.826	0.787
HCC-827	0.495	0.292	0.479	0.471	0.873	0.986	1.03	0.986	0.261	0.258	0.278	0.255	0.4	0.398	0.429	0.383	0.751	0.659	0.723	0.808
SK-LU-1	0.404	0.36	0.383	0.372	1.32	1.03	1.35	0.987	1.02	1.03	1.09	1.02	0.303	0.356	0.367	0.302	0.359	0.322	0.382	0.314
COR-L 105	0.439	0.408	0.41	0.397	0.847	0.733	0.812	0.806	1.09	0.996	1.19	0.981	0.366	0.385	0.378	0.347	0.751	0.586	0.73	0.785
LOU-NH91	0.492	0.547	0.535	0.497	0.497	0.459	0.566	0.522	0.432	0.404	0.401	0.396	0.65	0.693	0.749	0.634	0.747	0.671	0.722	0.689
NCI-H661	0.426	0.412	0.447	0.444	0.94	0.602	0.748	0.746	0.898	0.891	0.945	0.891	0.335	0.334	0.359	0.348	0.644	0.725	0.784	0.704
LU99A	0.397	0.423	0.385	0.381	1.31	1.11	1.06	1.02	0.169	0.163	0.187	0.175	0.224	0.317	0.315	0.257	0.307	0.355	0.291	0.284
NCI-H1650	0.376	0.341	0.338	0.351	0.19	0.192	0.207	0.194	0.377	0.328	0.47	0.449	0.371		0.364	0.473	0.597		0.601	0.647
SW 1573	0.377	0.41	0.449	0.37	1.15	1.18	1.12	0.997	0.803	0.846	0.881	0.975	0.187	0.233	0.135	0.176	0.639	0.593	0.804	0.521
HOP-62	0.444	0.457	0.451	0.426	0.989	0.711	0.82	0.521	0.284	0.296	0.388	0.376	0.365	0.432	0.391	0.332	0.802	0.796	0.791	0.789
UMC-11	0.338	0.34	0.319	0.32	0.748	0.726	0.757	0.904	0.787	0.757	0.751	0.717	0.196	0.202	0.187	0.204	0.443	0.495	0.464	0.472
LCLC-103H	0.492	0.48	0.451	0.405	1.06	1.14	1.2	0.958	0.444	0.493	0.462	0.468	0.499	0.554	0.538	0.433	0.452	0.513	0.428	0.431
NCI-H1734	0.352	0.376	0.331	0.31	0.974	1.11	0.966	0.893	0.413	0.417	0.454	0.418	0.276	0.263	0.259	0.27	0.506	0.631	0.634	0.582
EKVX	0.384	0.36	0.386	0.452	1.24	1.1	1.12	1.04	0.4	0.46	0.413	0.452	0.423	0.428	0.421	0.383	0.719	0.74	0.731	0.633
